System: T1, B0AT1
T1 construct: gene SLC6A19; native full-length transporter in brush border membrane vesicles from rabbit ileal villus cells; not purified
Experiment: Na-dependent [3H]glutamine uptake into villus BBMV, […] s, rapid filtration
Format: biochemical, Oryctolagus cuniculus
Settings: control (normal) rabbits; 0.2-100 mM glutamine; 100 mM NaCl versus choline chloride; pH 7.5; 3H-glutamine tracer

- Km: 24.6 ± 1.8 mM
Structure (SMILES): NC(=O)CC[C@H](N)C(=O)O [glutamine]
